Experimental findings from ChEMBL document CHEMBL5096145, “Evaluation of imidazo[2,1-b]thiazole-based anticancer agents in one decade (2011-2020): Current status and future prospects” (Bioorg Med Chem, 2021) are described below.

Common to all, as to format: functional
Assay [1] relates to SR. The experiment in a line: Anticancer activity against human SR cells incubated for 48 hrs by SRB staining assay relative to control.
Another assay has as its system HL-60(TB). The experiment in a line: Anticancer activity against human HL-60(TB) cells incubated for 48 hrs by SRB staining assay relative to control. For orientation: In SRB staining, fixed cells bind dye roughly in proportion to their protein.
In the next assay the test system is DU-145. Description: Anticancer activity against human DU-145 cells incubated for 48 hrs by SRB staining assay relative to control.
The subject of another assay is OVCAR-3. Description: Anticancer activity against human OVCAR-3 cells incubated for 48 hrs by SRB staining assay.
For a further assay, the system named is CCRF-CEM. The experiment in a line: Anticancer activity against human CCRF-CEM cells incubated for 48 hrs by SRB staining assay.
For a further assay, the system named is NCI-H322M. The experiment in a line: Anticancer activity against human NCI-H322M cells incubated for 48 hrs by SRB staining assay.
In the next assay the test system is NCI-H460. The experiment in a line: Anticancer activity against human NCI-H460 cells incubated for 48 hrs by SRB staining assay.
The test system of the next assay is HCT-15. Description: Anticancer activity against human HCT-15 cells incubated for 48 hrs by SRB staining assay.
A further assay has as its system SF-268. The experiment in a line: Anticancer activity against human SF-268 cells incubated for 48 hrs by SRB staining assay.
Another assay has as its system CAKI-1. Description: Anticancer activity against human CAKI-1 cells incubated for 48 hrs by SRB staining assay.
The subject of a further assay is UO-31. Description: Anticancer activity against human UO-31 cells incubated for 48 hrs by SRB staining assay.
The subject of a further assay is MDA-MB-231. Description: Anticancer activity against human MDA-MB-231 cells incubated for 48 hrs by SRB staining assay.
For assay [2], the system named is SR. Description: Anticancer activity against human SR cells incubated for 48 hrs by SRB staining assay.

By GI50 is commonly meant the concentration at which growth is held to half of that of the control.

As to `O=C(Cc1csc2nc(-c3ccc(Cl)cc3)cn12)N/N=C/c1ccccc1O`, the values for the Activity in the assay with SR [1], in the assay on HL-60(TB) and in the assay with DU-145 were 11.51%, 103.5% and 108.65%, respectively. In addition, the GI50 was 363 nM with OVCAR-3; 741 nM with CCRF-CEM; 1550 nM with NCI-H322M; 1380 nM in the assay on NCI-H460; 468 nM in the assay on HCT-15; 1260 nM with SF-268. Also, the 50% growth inhibitory concentration (GI50) was 776 nM with CAKI-1, 501 nM in the assay on UO-31, 1580 nM in the assay with MDA-MB-231 and 603 nM in the assay with SR [2].
